Vmax data for one sequence are collected here from article PMC2764547 (Structure (London, England : 1993), 2009).

In one experiment the target is wild-type DegS (Escherichia coli, UniProt P0AEE3). Format: biochemical, E. coli. Conditions: OMP peptide present, 23 ± 1 °C; average of two or more determinations.
The target of the next experiment is H198P/K243D DegS (Escherichia coli, UniProt P0AEE3, H198P/K243D). Format: biochemical, E. coli. Conditions: saturating OMP peptide, 23 ± 1 °C; average of two or more determinations.
Sequence of H198P/K243D DegS (P0AEE3 27-355 H198P/K243D limits assumed): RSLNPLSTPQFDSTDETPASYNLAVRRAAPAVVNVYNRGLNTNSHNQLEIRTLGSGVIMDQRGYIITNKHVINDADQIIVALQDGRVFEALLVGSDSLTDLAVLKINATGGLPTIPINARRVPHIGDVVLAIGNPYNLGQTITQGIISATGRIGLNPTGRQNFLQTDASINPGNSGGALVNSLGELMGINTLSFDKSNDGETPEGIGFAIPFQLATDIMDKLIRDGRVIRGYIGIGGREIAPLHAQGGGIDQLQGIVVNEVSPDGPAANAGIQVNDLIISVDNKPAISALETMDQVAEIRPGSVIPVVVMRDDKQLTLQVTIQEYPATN

Sequence of wild-type DegS (P0AEE3 27-355): as the sequence (P0AEE3 27-355 H198P/K243D limits assumed) above, with P172H, D217K counted along it

For DNRDGNVYYF, the Vmax is given as 1.1 ± 0.2 s^-1 enz^-1 at wild-type DegS and 1.8 ± 0.2 s^-1 enz^-1 on H198P/K243D DegS.
